Assay results reported in patent publication US20190029257A1, “APPLICATION FOR HERBICIDE-TOLERANT PROTEIN” (BEIJING DABEINONG TECHNOLOGY GROUP CO., LTD., priority 2016, published 2019).

How the values were obtained:
Type in all cases: in vivo
[1] = test system: Gm cytoplasmic ALT-3-01 soybean plants; assay: Glyphosate tolerance of soybean plants (herbicide damage rate); settings: 840 g ae/ha, 1-fold field concentration; 14 DAT
Text: (§1) The herbicide tolerance effects of Gm cytoplasmic ALT-1-01 soybean plants, Gm chloroplastic ALT-1-01 soybean plants, Gm cytoplasmic ALT-2-01 soybean plants, Gm chloroplastic ALT-2-01 soybean plants, Gm cytoplasmic ALT-3-01 soybean plants, Gm chloroplastic ALT-3-01 soybean plants and wild-type soybean plants on glyphosate were detected (at seedling stage), respectively.
(§2) 2 strains from Gm cytoplasmic ALT-1-01 soybean plants, Gm chloroplastic ALT-1-01 soybean plants, Gm cytoplasmic ALT-2-01 soybean plants, Gm chloroplastic ALT-2-01 soybean plants, Gm cytoplasmic ALT-3-01 soybean plants, Gm chloroplastic ALT-3-01 soybean plants and wild-type soybean plants were respectively taken each, and 10-15 plants were selected from each strain and tested. The plants above were sprayed with glyphosate (840 g ae/ha, 1-fold field concentration) and a blank solvent (water). The herbicide damage rate was measured for each plant according to the phytotoxicity symptoms 14 days after spraying (14 DAT): herbicide damage rate (%)=Σ(number of damaged plants at the same level×level number)/(total number of plants×highest level).

[2] = test system: Gm cytoplasmic ALT-1-01 soybean plants; assay: as above; settings: 840 g ae/ha, 1-fold field concentration; 14 DAT
Text: as §1, §2

[3] = test system: Gm chloroplastic ALT-3-01 soybean plants; assay: as above; settings: 840 g ae/ha, 1-fold field concentration; 14 DAT
Text: as §1, §2

[4] = test system: Gm chloroplastic ALT-2-01 soybean plants; assay: as above; settings: 840 g ae/ha, 1-fold field concentration; 14 DAT
Text: as §1, §2

[5] = test system: Gm cytoplasmic ALT-2-01 soybean plants; assay: as above; settings: 840 g ae/ha, 1-fold field concentration; 14 DAT
Text: as §1, §2

[6] = test system: Gm chloroplastic ALT-1-01 soybean plants; assay: as above; settings: 840 g ae/ha, 1-fold field concentration; 14 DAT
Text: as §1, §2

[7] = test system: wild-type soybean plants (CK1); assay: as above; settings: 840 g ae/ha, 1-fold field concentration; 14 DAT
Text: as §1, §2

[8] = test system: all the transformed Arabidopsis thaliana T1 plants (ALT-1, ALT-2 and ALT-3); assay: Herbicide tolerance of Arabidopsis thaliana T1 plants; settings: 1-fold field concentration; summary of Table 2
Text: (§3) At cytoplasmic ALT-1-01 T1 plants, At chloroplastic ALT-1-01 T1 plants, At cytoplasmic ALT-2-01 T1 plants, At chloroplastic ALT-2-01 T1 plants, At cytoplasmic ALT-3-01 T1 plants, At chloroplastic ALT-3-01 T1 plants and wild-type Arabidopsis thaliana plants were sprayed with halosulfuron-methyl (34 g ai/ha, 1-fold field concentration) and a blank solvent (water), respectively. Plants were counted for the resistance situations 14 days after spraying: those having a consistent growth status with the blank solvent (water) group after 14 days were classified as highly resistant plants, those having a bolting height less than ½ of that of the blank solvent (water) group after 14 days were classified as moderately resistant plants, those still not capable of bolting after 14 days were classified as poorly resistant plants, and those dead after 14 days were classified as non-resistant plants. Since each Arabidopsis thaliana T1 plant was an independent transformation event, a significant difference in individual T1 responses could be expected at a given dose.
At cytoplasmic ALT-1-01 T1 plants, At chloroplastic ALT-1-01 T1 plants, At cytoplasmic ALT-2-01 T1 plants, At chloroplastic ALT-2-01 T1 plants, At cytoplasmic ALT-3-01 T1 plants, At chloroplastic ALT-3-01 T1 plants and wild-type Arabidopsis thaliana plants in Example 4 were sprayed with iodosulfuron-methyl (10 g ai/ha, 1-fold field concentration), mesosulfuron (14 g ai/ha, 1-fold field concentration) and oxasulfuron (60 g ai/ha, 1-fold field concentration), respectively, in addition to halosulfuron-methyl (34 g ai/ha, 1-fold field concentration) and the blank solvent (water). Plants were counted for the resistance situation 14 days after spraying: those having a consistent growth status with the blank solvent (water) group after 14 days were classified as highly resistant plants, those having a bolting height less than ½ of that of the blank solvent (water) group after 14 days were classified as moderately resistant plants, those still not capable of bolting after 14 days were classified as poorly resistant plants, and those dead after 14 days were classified as non-resistant plants. Since each Arabidopsis thaliana T1 plant was an independent transformation event, a significant difference in individual T1 responses could be expected at a given dose.

[9] = test system: wild-type Arabidopsis thaliana plants; assay: Herbicide tolerance of Arabidopsis thaliana plants (spray, resistance classes counted); settings: 10 g ai/ha (1x Iod.); number of plants 14 days after spraying; Total 29
Text: (§4) T1 transformants were initially selected from the background of untransformed seeds using a glufosinate selection scheme. About 40000 T1 seeds were screened, and 380 T1 positive transformants (PAT gene) were identified with a transformation efficiency of about 0.95%. The plants that were transformed with the recombinant expression vector DBN100632 were Arabidopsis thaliana plants having an ALT-1-01 nucleotide sequence located in the cytoplasm introduced (At cytoplasmic ALT-1-01), and the plants that were transformed with the recombinant expression vector DBN100631 were Arabidopsis thaliana plants having an ALT-1-01 nucleotide sequence located in the chloroplast introduced (At chloroplastic ALT-1-01); the plants that were transformed with the recombinant expression vector DBN100634 were Arabidopsis thaliana plants having an ALT-2-01 nucleotide sequence located in the cytoplasm introduced (At cytoplasmic ALT-2-01), and the plants that were transformed with the recombinant expression vector DBN100633 were Arabidopsis thaliana plants having an ALT-2-01 nucleotide sequence located in the chloroplast introduced (At chloroplastic ALT-2-01); and the plants that were transformed with the recombinant expression vector DBN100636 were Arabidopsis thaliana plants having an ALT-3-01 nucleotide sequence located in the cytoplasm introduced (At cytoplasmic ALT-3-01), and the plants that were transformed with the recombinant expression vector DBN100635 were Arabidopsis thaliana plants having an ALT-3-01 nucleotide sequence located in the chloroplast introduced (At chloroplastic ALT-3-01). The herbicide tolerance effects of At cytoplasmic ALT-1-01 T1 plants, At chloroplastic ALT-1-01 T1 plants, At cytoplasmic ALT-2-01 T1 plants, At chloroplastic ALT-2-01 T1 plants, At cytoplasmic ALT-3-01 T1 plants, At chloroplastic ALT-3-01 T1 plants and wild-type Arabidopsis thaliana plants on halosulfuron-methyl were detected (14 days after sowing), respectively.
as §3
At cytoplasmic ALT-1-01 T1 plants, At chloroplastic ALT-1-01 T1 plants, At cytoplasmic ALT-2-01 T1 plants, At chloroplastic ALT-2-01 T1 plants, At cytoplasmic ALT-3-01 T1 plants, At chloroplastic ALT-3-01 T1 plants and wild-type Arabidopsis thaliana plants in Example 4 were sprayed with iodosulfuron-methyl (10 g ai/ha, 1-fold field concentration), mesosulfuron (14 g ai/ha, 1-fold field concentration) and oxasulfuron (60 g ai/ha, 1-fold field concentration), respectively, in addition to halosulfuron-methyl (34 g ai/ha, 1-fold field concentration) and the blank solvent (water). […]

[10] = test system: At cytoplasmic ALT-1-01 T1 plants; assay: Herbicide tolerance of Arabidopsis thaliana T1 plants (spray, resistance classes counted); settings: number of plants 14 days after spraying, Total 29
Text: as §4
as §3, with “At cytoplasmic ALT-1-01 T1 plants, At chloroplastic ALT-1-01 T1 plants, At cytoplasmic ALT-2-01 T1 plants, At chloroplastic ALT-2-01 T1 plants, At cytoplasmic ALT-3-01 T1 plants, At chloroplastic ALT-3-01 T1 plants and wild-type Arabidopsis thaliana plants were sprayed with halosulfuron-methyl (34 g ai/ha, 1-fold field concentration) and a blank solvent (water), respectively.” left out
(§5) […] Plants were counted for the resistance situation 14 days after spraying: those having a consistent growth status with the blank solvent (water) group after 14 days were classified as highly resistant plants, those having a bolting height less than ½ of that of the blank solvent (water) group after 14 days were classified as moderately resistant plants, those still not capable of bolting after 14 days were classified as poorly resistant plants, and those dead after 14 days were classified as non-resistant plants. Since each Arabidopsis thaliana T1 plant was an independent transformation event, a significant difference in individual T1 responses could be expected at a given dose.

[11] = test system: At cytoplasmic ALT-3-01 T1 plants; assay: as above; settings: number of plants 14 days after spraying, Total 30
Text: as §4
as §5, with “situations” for “situation”
as §5

[12] = test system: At chloroplastic ALT-2-01 T1 plants; assay: as above; settings: number of plants 14 days after spraying
Text: as §4
as §5, with “situations” for “situation”
as §5

[13] = test system: At cytoplasmic ALT-2-01 T1 plants; assay: as above; settings: number of plants 14 days after spraying
Text: as §4
as §5, with “situations” for “situation”
as §5

[14] = test system: At chloroplastic ALT-1-01 T1 plants; assay: as above; settings: number of plants 14 days after spraying
Text: as §4
as §5, with “situations” for “situation”
as §5

[15] = test system: At chloroplastic ALT-3-01 T1 plants; assay: as above; settings: number of plants 14 days after spraying, Total 32
Text: as §4
as §5, with “situations” for “situation”
as §5

[16] = 14 g ai/ha (1x Mes.), genotype cell prints only "At"

In the case of O=C(O)CNCP(=O)(O)O [glyphosate, N-phosphonomethylglycine], the “glyphosate herbicide damage rate” value [1] is reported as ~0%, the “glyphosate herbicide damage rate” value [2] is reported as ~0% and the “glyphosate herbicide damage rate” value [3] is reported as ~0%. For the same compound, the “glyphosate herbicide damage rate” value [4] was ~0%, the “glyphosate herbicide damage rate” value [5] was ~0% and the “glyphosate herbicide damage rate” value [6] was ~0%. For the same compound, the “glyphosate herbicide damage rate” value [7] was “not less than 90%”.

For COC(=O)c1ccc(I)cc1S(=O)(=O)NC(=O)Nc1nc(C)nc(OC)n1 [iodosulfuron-methyl], the “ability of the transformed plants to degrade the herbicide” value (shortened to “ability of the transformed plants”) [8] was “did not exhibit the ability to degrade”, the “degree of damage, transformed versus wild-type plants” value [8] was “no difference” and the Highly resistant [9] was 0. The Moderately resistant [9] was 0, the Non-resistant [9] was 29 and the Poorly resistant [9] was 0. For the same compound, the Highly resistant ([10]; 10 g ai/ha (1x Iod.)) was 0, the Moderately resistant ([10]; 10 g ai/ha (1x Iod.)) was 0 and the Non-resistant ([10]; 10 g ai/ha (1x Iod.)) was 29. The Poorly resistant ([10]; 10 g ai/ha (1x Iod.)) was 0, the Highly resistant ([11]; 10 g ai/ha (1x Iod.)) was 0 and the Moderately resistant ([11]; 10 g ai/ha (1x Iod.)) was 0. The Non-resistant ([11]; 10 g ai/ha (1x Iod.)) was 30, the Poorly resistant ([11]; 10 g ai/ha (1x Iod.)) was 0 and the Highly resistant ([12]; 10 g ai/ha (1x Iod.), Total 31) was 0. For the same compound, the Moderately resistant ([12]; 10 g ai/ha (1x Iod.), Total 31) was 0, the Non-resistant ([12]; 10 g ai/ha (1x Iod.), Total 31) was 31 and the Poorly resistant ([12]; 10 g ai/ha (1x Iod.), Total 31) was 0. For the same compound, the Highly resistant ([13]; 10 g ai/ha (1x Iod.), Total 30) was 0, the Moderately resistant ([13]; 10 g ai/ha (1x Iod.), Total 30) was 0 and the Non-resistant ([13]; 10 g ai/ha (1x Iod.), Total 30) was 30. It also gave a Poorly resistant ([13]; 10 g ai/ha (1x Iod.), Total 30) of 0, a Highly resistant ([14]; 10 g ai/ha (1x Iod.), Total 30) of 0 and a Moderately resistant ([14]; 10 g ai/ha (1x Iod.), Total 30) of 0. The Non-resistant ([14]; 10 g ai/ha (1x Iod.), Total 30) was 30, the Poorly resistant ([14]; 10 g ai/ha (1x Iod.), Total 30) was 0 and the Highly resistant ([15]; 10 g ai/ha (1x Iod.)) was 0. For the same compound, the Moderately resistant ([15]; 10 g ai/ha (1x Iod.)) was 0, the Non-resistant ([15]; 10 g ai/ha (1x Iod.)) was 32 and the Poorly resistant ([15]; 10 g ai/ha (1x Iod.)) was 0.

In the case of COC(=O)c1ccc(CNS(C)(=O)=O)cc1S(=O)(=O)NC(=O)Nc1nc(OC)cc(OC)n1 [mesosulfuron], the “ability of the transformed plants” value [8] is reported as “did not exhibit the ability to degrade”, the “degree of damage, transformed versus wild-type plants” value [8] is reported as “no difference” and the Highly resistant ([10]; 14 g ai/ha (1x Mes.)) is reported as 0. The Moderately resistant ([10]; 14 g ai/ha (1x Mes.)) was 0, the Non-resistant ([10]; 14 g ai/ha (1x Mes.)) was 29 and the Poorly resistant ([10]; 14 g ai/ha (1x Mes.)) was 0. It also gave a Highly resistant ([11]; 14 g ai/ha (1x Mes.)) of 0, a Moderately resistant ([11]; 14 g ai/ha (1x Mes.)) of 0 and a Non-resistant ([11]; 14 g ai/ha (1x Mes.)) of 30. It also gave a Poorly resistant ([11]; 14 g ai/ha (1x Mes.)) of 0, a Highly resistant ([12]; 14 g ai/ha (1x Mes.), Total 30) of 0 and a Moderately resistant ([12]; 14 g ai/ha (1x Mes.), Total 30) of 0. It also gave a Non-resistant ([12]; 14 g ai/ha (1x Mes.), Total 30) of 30, a Poorly resistant ([12]; 14 g ai/ha (1x Mes.), Total 30) of 0 and a Highly resistant ([13]; 14 g ai/ha (1x Mes.), Total 32) of 0. The Moderately resistant ([13]; 14 g ai/ha (1x Mes.), Total 32) was 0, the Non-resistant ([13]; 14 g ai/ha (1x Mes.), Total 32) was 32 and the Poorly resistant ([13]; 14 g ai/ha (1x Mes.), Total 32) was 0. For the same compound, the Highly resistant ([14]; 14 g ai/ha (1x Mes.), Total 32) was 0, the Moderately resistant ([14]; 14 g ai/ha (1x Mes.), Total 32) was 0 and the Non-resistant ([14]; 14 g ai/ha (1x Mes.), Total 32) was 32. It also gave a Poorly resistant ([14]; 14 g ai/ha (1x Mes.), Total 32) of 0, a Highly resistant [15, 16] of 0 and a Moderately resistant [15, 16] of 0. It also gave a Non-resistant [15, 16] of 32 and a Poorly resistant [15, 16] of 0.

Cc1cc(C)nc(NC(=O)NS(=O)(=O)c2ccccc2C(=O)OC2COC2)n1 [oxasulfuron] was tested, and the “ability of the transformed plants” value [8] was “did not exhibit the ability to degrade” and the “degree of damage, transformed versus wild-type plants” value [8] was “no difference”.
